Experimental data taken from ChEMBL document CHEMBL1201862, “PubChem BioAssay data set” (2004).
Calls of active or inactive are those of the source.

Key:
[1] = cytotoxicity toward NIH3T3 fibroblasts, dose response, counter-screen, cell-based, ATP luminescence, mouse fibroblasts (AID 2010); assay type: functional;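 note: cells exposed to compound for about 90 hours before reading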
[2] = molecular target: T1, Apoptotic protease-activating factor 1 (Homo sapiens, UniProt O14727); assay type: functional
T1 sequence (O14727 whole entry): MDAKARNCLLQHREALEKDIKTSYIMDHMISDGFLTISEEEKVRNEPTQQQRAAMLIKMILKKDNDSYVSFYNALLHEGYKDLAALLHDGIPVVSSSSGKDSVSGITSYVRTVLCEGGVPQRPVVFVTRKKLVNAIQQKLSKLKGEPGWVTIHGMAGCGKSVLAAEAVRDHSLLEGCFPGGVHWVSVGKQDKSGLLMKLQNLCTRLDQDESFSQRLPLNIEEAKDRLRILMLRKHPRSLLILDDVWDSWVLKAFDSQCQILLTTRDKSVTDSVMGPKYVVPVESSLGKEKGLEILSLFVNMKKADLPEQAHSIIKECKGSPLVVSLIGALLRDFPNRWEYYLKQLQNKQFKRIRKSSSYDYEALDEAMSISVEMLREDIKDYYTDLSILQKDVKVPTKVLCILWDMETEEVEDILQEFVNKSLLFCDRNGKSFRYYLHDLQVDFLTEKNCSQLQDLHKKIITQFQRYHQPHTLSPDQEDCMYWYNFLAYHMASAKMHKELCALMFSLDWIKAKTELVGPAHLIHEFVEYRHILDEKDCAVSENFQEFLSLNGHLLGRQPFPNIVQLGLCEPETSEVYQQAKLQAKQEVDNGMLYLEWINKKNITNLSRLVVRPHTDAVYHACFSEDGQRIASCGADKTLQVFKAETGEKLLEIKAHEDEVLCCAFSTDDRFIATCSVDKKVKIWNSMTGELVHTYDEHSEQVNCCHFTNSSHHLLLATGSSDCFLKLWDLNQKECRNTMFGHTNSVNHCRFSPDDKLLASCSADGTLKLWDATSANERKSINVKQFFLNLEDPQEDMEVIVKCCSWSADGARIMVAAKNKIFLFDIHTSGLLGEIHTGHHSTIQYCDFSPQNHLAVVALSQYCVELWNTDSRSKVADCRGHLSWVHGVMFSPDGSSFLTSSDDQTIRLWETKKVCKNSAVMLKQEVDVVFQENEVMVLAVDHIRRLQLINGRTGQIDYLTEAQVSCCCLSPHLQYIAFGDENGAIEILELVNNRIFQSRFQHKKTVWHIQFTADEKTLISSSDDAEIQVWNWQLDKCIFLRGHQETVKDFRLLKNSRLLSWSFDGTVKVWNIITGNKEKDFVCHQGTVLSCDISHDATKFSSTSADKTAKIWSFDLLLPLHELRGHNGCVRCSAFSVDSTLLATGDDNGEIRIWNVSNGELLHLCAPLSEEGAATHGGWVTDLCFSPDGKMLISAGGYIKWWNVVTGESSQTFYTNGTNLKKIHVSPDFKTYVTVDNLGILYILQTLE

[3] = tested on: Streptococcus sp. 'group A'; assay: growth inhibition of control SK(-) GAS strain, dose response, counter-screen for streptokinase expression inhibitor project, luminescence, kanamycin, BacTiterGlo, confirmation (AID 1900); assay type: functional, organism-based
HEK293 = assay: cells; assay type: functional, cell-based; details: Homo sapiens
[4] = molecular target: Delta-type opioid receptor (Homo sapiens, UniProt P41143); assay: Counterscreen for agonists of heterodimerization of the mu 1 (OPRM1) and delta 1 (OPRD1) opioid receptors: Luminescence-based cell-based high throughput dose response assay to identify agonists of OPRD1 homodimerization. [Related pubchem assays (depositor defined):AID504326, AID504355, AID504692, AID504904, AID504905]; assay type: functional
Sequence of Delta-type opioid receptor (P41143 whole entry): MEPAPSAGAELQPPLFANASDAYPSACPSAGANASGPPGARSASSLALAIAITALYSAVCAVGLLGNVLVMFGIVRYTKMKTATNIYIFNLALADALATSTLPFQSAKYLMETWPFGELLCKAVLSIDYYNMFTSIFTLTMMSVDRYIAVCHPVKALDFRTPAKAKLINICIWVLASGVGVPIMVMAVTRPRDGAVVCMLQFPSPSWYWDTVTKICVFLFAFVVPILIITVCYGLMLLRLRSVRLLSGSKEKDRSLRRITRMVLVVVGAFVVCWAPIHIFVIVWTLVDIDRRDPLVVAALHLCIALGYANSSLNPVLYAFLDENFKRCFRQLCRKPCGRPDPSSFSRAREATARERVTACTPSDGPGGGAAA

Mu-type opioid receptor = Mu-type opioid receptor (Homo sapiens, UniProt P35372); assay: Counterscreen for agonists of heterodimerization of the mu 1 (OPRM1) and delta 1 (OPRD1) opioid receptors: Luminescence-based cell-based high throughput dose response assay to identify agonists of OPRM1 homodimerization.; assay type: functional;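 note: U2OS cells expressing OPRM1 and beta-arrestin as split beta-galactosidase partners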
Sequence of Mu-type opioid receptor (P35372 whole entry): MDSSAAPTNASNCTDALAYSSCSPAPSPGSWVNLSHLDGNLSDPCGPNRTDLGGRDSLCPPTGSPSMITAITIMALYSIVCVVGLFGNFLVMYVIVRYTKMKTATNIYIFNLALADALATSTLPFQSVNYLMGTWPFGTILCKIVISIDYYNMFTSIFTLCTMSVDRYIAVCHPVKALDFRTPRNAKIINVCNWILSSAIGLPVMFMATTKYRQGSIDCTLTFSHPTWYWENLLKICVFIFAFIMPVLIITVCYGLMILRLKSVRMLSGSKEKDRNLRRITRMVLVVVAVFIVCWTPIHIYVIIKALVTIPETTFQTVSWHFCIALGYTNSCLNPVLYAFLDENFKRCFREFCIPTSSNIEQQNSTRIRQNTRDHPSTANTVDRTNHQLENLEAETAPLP

[5] = molecular target: 5-hydroxytryptamine receptor 5A (Homo sapiens, UniProt P47898); assay: Counterscreen for agonists of OPRM1-OPRD1 heterodimerization: luminescence-based cell-based high throughput dose response assay to identify agonists of 5-hydroxytryptamine (serotonin) 5A receptor (HTR5A). [Related pubchem assays (depositor defined):AID504326, AID504355, AID504692, AID504904, AID504905]; assay type: functional
Sequence of 5-hydroxytryptamine receptor 5A (P47898 whole entry): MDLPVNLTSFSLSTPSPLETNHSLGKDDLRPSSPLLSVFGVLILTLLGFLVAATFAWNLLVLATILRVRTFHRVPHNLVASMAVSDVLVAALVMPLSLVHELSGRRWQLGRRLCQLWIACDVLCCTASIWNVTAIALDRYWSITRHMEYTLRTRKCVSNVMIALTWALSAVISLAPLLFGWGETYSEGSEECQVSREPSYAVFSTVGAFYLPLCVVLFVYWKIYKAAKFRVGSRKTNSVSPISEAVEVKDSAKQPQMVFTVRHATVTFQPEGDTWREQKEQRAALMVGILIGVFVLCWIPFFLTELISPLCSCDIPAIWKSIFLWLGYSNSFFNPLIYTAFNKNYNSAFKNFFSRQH

Protein RecA = molecular target: T2, Protein RecA (Mycobacterium tuberculosis, UniProt P9WHJ3); assay: Fluorescence Cell-Free Homogeneous Dose Retest to Identify Inhibitors of RecA-Intein Splicing Activity. [Related pubchem assays (depositor defined):AID2097, AID2223, AID489010, AID492950]; assay type: functional
T2 sequence (P9WHJ3 whole entry): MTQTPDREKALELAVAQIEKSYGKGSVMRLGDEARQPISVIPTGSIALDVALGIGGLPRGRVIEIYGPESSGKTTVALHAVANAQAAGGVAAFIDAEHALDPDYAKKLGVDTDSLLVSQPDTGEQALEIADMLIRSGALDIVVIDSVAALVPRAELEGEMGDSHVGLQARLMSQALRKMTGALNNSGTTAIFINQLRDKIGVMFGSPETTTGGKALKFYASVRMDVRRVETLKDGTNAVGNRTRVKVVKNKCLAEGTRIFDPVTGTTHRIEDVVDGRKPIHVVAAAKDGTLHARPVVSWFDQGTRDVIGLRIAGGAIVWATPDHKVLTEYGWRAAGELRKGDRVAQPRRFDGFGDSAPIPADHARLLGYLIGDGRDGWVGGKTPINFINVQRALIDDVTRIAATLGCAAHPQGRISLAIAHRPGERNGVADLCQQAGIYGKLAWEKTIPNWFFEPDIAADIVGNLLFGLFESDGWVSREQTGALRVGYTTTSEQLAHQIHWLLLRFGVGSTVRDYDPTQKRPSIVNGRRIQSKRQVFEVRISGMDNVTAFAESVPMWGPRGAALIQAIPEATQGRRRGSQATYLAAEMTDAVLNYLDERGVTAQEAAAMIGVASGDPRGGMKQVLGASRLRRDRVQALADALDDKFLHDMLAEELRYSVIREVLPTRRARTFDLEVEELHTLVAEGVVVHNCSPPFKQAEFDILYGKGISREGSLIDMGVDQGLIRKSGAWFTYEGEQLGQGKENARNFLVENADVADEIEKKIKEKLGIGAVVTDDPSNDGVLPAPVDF

[6] = molecular target: Polyadenylate-binding protein 1 (Homo sapiens, UniProt P11940); assay: PABP1 MLLE–PAM2 binding inhibitor potency, dose response, biochemical, fluorescence polarization, FITC-PAM2 peptide (AID 602259); assay type: functional; details: read-out: IC50_Mean
Sequence of Polyadenylate-binding protein 1 (P11940 whole entry): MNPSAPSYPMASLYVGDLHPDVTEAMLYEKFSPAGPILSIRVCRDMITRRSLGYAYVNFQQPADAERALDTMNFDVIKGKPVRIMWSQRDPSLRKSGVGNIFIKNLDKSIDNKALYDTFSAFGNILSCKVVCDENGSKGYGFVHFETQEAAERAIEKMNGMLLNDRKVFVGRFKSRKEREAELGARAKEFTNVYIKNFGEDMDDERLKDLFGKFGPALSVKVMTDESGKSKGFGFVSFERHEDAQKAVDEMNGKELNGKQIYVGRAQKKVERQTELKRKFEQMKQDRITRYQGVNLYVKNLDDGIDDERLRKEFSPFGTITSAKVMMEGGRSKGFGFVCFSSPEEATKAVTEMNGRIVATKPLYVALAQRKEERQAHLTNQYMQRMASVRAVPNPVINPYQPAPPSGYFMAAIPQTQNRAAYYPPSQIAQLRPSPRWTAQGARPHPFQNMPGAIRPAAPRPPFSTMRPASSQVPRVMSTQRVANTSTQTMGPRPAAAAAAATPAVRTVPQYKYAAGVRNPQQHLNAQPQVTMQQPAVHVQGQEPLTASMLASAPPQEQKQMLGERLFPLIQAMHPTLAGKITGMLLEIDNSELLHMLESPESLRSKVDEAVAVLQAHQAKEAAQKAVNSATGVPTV

With `Cc1ccc(C(=O)NNc2cc(N3CCCC3)nc(N3CCCC3)n2)cc1` the EC50 [1] was > 30 µM (not active) and the IC50 [2] was 5.08 µM (active).

With `Cc1cc(/C=C2\SC(=S)N(C)C2=O)c(C)n1-c1ccc(O)cc1` the EC50 [3] was 3.41 µM (active), the IC50 (HEK293) was 0.345 µM (active) and the EC50 [4] was 15.1 µM (inactive). The EC50 (Mu-type opioid receptor) was > 92.5 µM (inactive) and the EC50 [5] was > 92.5 µM (inactive).

For `COC(=O)c1cccc(-c2ccc(C(c3c(C)n[nH]c3O)c3c(C)n[nH]c3O)o2)c1`, the EC50 (Protein RecA) was 0.175 µM (active).

With `O=C1/C(=N\c2cccc(O)c2)C(N2CCCCC2)=C(O)c2ccccc21` the IC50 [2] was 4.03 µM (active), the EC50 (Protein RecA) was 0.364 µM (active) and the IC50 [6] was > 66 µM (inactive).
